Reference: ChEMBL document CHEMBL4627293, “Synthesis and in vitro activity of asymmetric indole-based bisamidine compounds against Gram-positive and Gram-negative pathogens” (2020)
Values after ≈ are worked out from the molar mass of the structure shown.

Key:
Format in all cases: functional
[1] = system: Staphylococcus aureus; assay: Antimicrobial activity against methicillin-sensitive Staphylococcus aureus ATCC 29213
[2] = system: Staphylococcus aureus; assay: Antimicrobial activity against methicillin- resistant Staphylococcus aureus ATCC 33591
[3] = system: Enterococcus faecalis; assay: Antimicrobial activity against Vancomycin-sensitive Enterococcus faecalis ATCC 29212
[4] = system: Enterococcus faecalis; assay: Antimicrobial activity against Vancomycin-resistant Enterococcus faecalis ATCC 51299
[5] = system: Escherichia coli; assay: Antimicrobial activity against Escherichia coli ATCC 25922
[6] = system: Klebsiella pneumoniae; assay: Antimicrobial activity against ESBL-producing Klebsiella pneumoniae ATCC 700603
[7] = system: Klebsiella pneumoniae; assay: Antimicrobial activity against NDM-1 producing Klebsiella pneumoniae ATCC BAA-2146
[8] = system: Pseudomonas aeruginosa; assay: Antimicrobial activity against Pseudomonas aeruginosa ATCC 27853
[9] = system: Citrobacter freundii; assay: Antimicrobial activity against Citrobacter freundii ATCC 43864
[10] = system: Providencia rettgeri; assay: Antimicrobial activity against Providencia rettgeri ATCC 31052
[11] = system: Proteus vulgaris; assay: Antimicrobial activity against Proteus vulgaris ATCC 29905
[12] = system: Staphylococcus epidermidis; assay: Antimicrobial activity against methicillin-susceptible Staphylococcus epidermidis ATCC 12228
[13] = system: Enterococcus faecium; assay: Antimicrobial activity against vancomycin-resistant Enterococcus faecium ATCC 700221
[14] = system: Klebsiella pneumoniae; assay: Antimicrobial activity against Klebsiella pneumoniae 7
[15] = system: Acinetobacter calcoaceticus; assay: Antimicrobial activity against Acinetobacter calcoaceticus ATCC 19606
[16] = system: Klebsiella aerogenes; assay: Antimicrobial activity against Enterobacter aerogenes ATCC 45102

Structure (SMILES) | MIC [1] | MIC [2] | MIC [3] | MIC [4] | MIC [5] | MIC [6] | MIC [7] | MIC [8] | MIC [9] | MIC [10] | MIC [11] | MIC [12] | MIC [13] | MIC [14] | MIC [15] | MIC [16]
CC(C)NC(=N)c1ccc2cc(-c3ccc(Oc4ccc(-c5cc6ccc(C(=N)NC(C)C)cc6[nH]5)c(C(F)(F)F)c4)cc3)[nH]c2c1 | 2 µg/mL (≈ 3.14 µM) | 2 µg/mL (≈ 3.14 µM) | 2 µg/mL (≈ 3.14 µM) | 2 µg/mL (≈ 3.14 µM) | 16 µg/mL (≈ 25.1 µM) | 16 µg/mL (≈ 25.1 µM) | 16 µg/mL (≈ 25.1 µM) | 32 µg/mL (≈ 50.3 µM) | 16 µg/mL (≈ 25.1 µM) | 64 µg/mL (≈ 101 µM) | 16 µg/mL (≈ 25.1 µM) | 2 µg/mL (≈ 3.14 µM) | 2 µg/mL (≈ 3.14 µM) | 16 µg/mL (≈ 25.1 µM) | 64 µg/mL (≈ 101 µM) | 
C/N=C(\NC)c1ccc2cc(-c3ccc(Oc4ccc(-c5cc6ccc(C(=N)NC)cc6[nH]5)cc4)cc3)[nH]c2c1 | 0.5 µg/mL (≈ 0.949 µM) | 0.25 µg/mL (≈ 0.475 µM) | 1 µg/mL (≈ 1.9 µM) | 0.25 µg/mL (≈ 0.475 µM) | 16 µg/mL (≈ 30.4 µM) | 64 µg/mL (≈ 122 µM) | 32 µg/mL (≈ 60.8 µM) | 64 µg/mL (≈ 122 µM) | 128 µg/mL (≈ 243 µM) | 128 µg/mL (≈ 243 µM) | 128 µg/mL (≈ 243 µM) |  |  |  |  | 64 µg/mL (≈ 122 µM)
CNC(=N)c1ccc2cc(-c3ccc(Oc4ccc(-c5cc6ccc(C(=N)NC)cc6[nH]5)nc4)cc3)[nH]c2c1 | 2 µg/mL (≈ 3.89 µM) | 2 µg/mL (≈ 3.89 µM) | 2 µg/mL (≈ 3.89 µM) | 2 µg/mL (≈ 3.89 µM) | 16 µg/mL (≈ 31.2 µM) | 64 µg/mL (≈ 125 µM) | 64 µg/mL (≈ 125 µM) | 64 µg/mL (≈ 125 µM) | 16 µg/mL (≈ 31.2 µM) | 128 µg/mL (≈ 249 µM) | 128 µg/mL (≈ 249 µM) | 0.25 µg/mL (≈ 0.487 µM) | 1 µg/mL (≈ 1.95 µM) | 64 µg/mL (≈ 125 µM) | > 128 µg/mL | 
CNC(=N)c1ccc2cc(-c3ccc(Oc4ccc(-c5cc6ccc(C(=N)NC)cc6[nH]5)c(C(F)(F)F)c4)cn3)[nH]c2c1 | 0.5 µg/mL (≈ 0.86 µM) | 0.5 µg/mL (≈ 0.86 µM) | 1 µg/mL (≈ 1.72 µM) | 1 µg/mL (≈ 1.72 µM) | 8 µg/mL (≈ 13.8 µM) | 32 µg/mL (≈ 55 µM) | 16 µg/mL (≈ 27.5 µM) | 64 µg/mL (≈ 110 µM) | 16 µg/mL (≈ 27.5 µM) | 64 µg/mL (≈ 110 µM) | 64 µg/mL (≈ 110 µM) | 0.25 µg/mL (≈ 0.43 µM) | 0.5 µg/mL (≈ 0.86 µM) | 16 µg/mL (≈ 27.5 µM) | 64 µg/mL (≈ 110 µM) | 
CN(C)C(=N)c1ccc2cc(-c3ccc(Oc4ccc(-c5cc6ccc(C(=N)N(C)C)cc6[nH]5)c(Cl)c4)cc3)[nH]c2c1 | 8 µg/mL (≈ 13.9 µM) | 2 µg/mL (≈ 3.48 µM) | 16 µg/mL (≈ 27.8 µM) | 16 µg/mL (≈ 27.8 µM) | 32 µg/mL (≈ 55.6 µM) | > 128 µg/mL | 128 µg/mL (≈ 223 µM) | > 128 µg/mL | 64 µg/mL (≈ 111 µM) | > 128 µg/mL | 128 µg/mL (≈ 223 µM) | 2 µg/mL (≈ 3.48 µM) | 16 µg/mL (≈ 27.8 µM) | > 128 µg/mL | > 128 µg/mL | 
CN(C)C(=N)c1ccc2cc(-c3ccc(Oc4ccc(-c5cc6ccc(C(=N)N(C)C)cc6[nH]5)cn4)cc3)[nH]c2c1 | 0.5 µg/mL (≈ 0.923 µM) | 0.25 µg/mL (≈ 0.462 µM) | 2 µg/mL (≈ 3.69 µM) | 2 µg/mL (≈ 3.69 µM) | 4 µg/mL (≈ 7.38 µM) | 8 µg/mL (≈ 14.8 µM) | 8 µg/mL (≈ 14.8 µM) | 64 µg/mL (≈ 118 µM) | 4 µg/mL (≈ 7.38 µM) | 8 µg/mL (≈ 14.8 µM) | 8 µg/mL (≈ 14.8 µM) | 0.25 µg/mL (≈ 0.462 µM) | 1 µg/mL (≈ 1.85 µM) | 4 µg/mL (≈ 7.38 µM) | 128 µg/mL (≈ 236 µM) | 
CC(C)NC(=N)c1ccc2cc(-c3ccc(Oc4ccc(-c5cc6ccc(C(=N)NC(C)C)cc6[nH]5)c(C(F)(F)F)c4)cn3)[nH]c2c1 | 0.5 µg/mL (≈ 0.784 µM) | 0.5 µg/mL (≈ 0.784 µM) | 0.5 µg/mL (≈ 0.784 µM) | 0.5 µg/mL (≈ 0.784 µM) | 8 µg/mL (≈ 12.5 µM) | 16 µg/mL (≈ 25.1 µM) | 16 µg/mL (≈ 25.1 µM) | 32 µg/mL (≈ 50.2 µM) | 8 µg/mL (≈ 12.5 µM) | 32 µg/mL (≈ 50.2 µM) | 16 µg/mL (≈ 25.1 µM) | 0.5 µg/mL (≈ 0.784 µM) | 0.5 µg/mL (≈ 0.784 µM) | 16 µg/mL (≈ 25.1 µM) | 32 µg/mL (≈ 50.2 µM) | 
CNC(=N)c1ccc2cc(-c3ccc(Oc4ccc(-c5cc6ccc(C(=N)NC)cc6[nH]5)cn4)cc3)[nH]c2c1 | 0.25 µg/mL (≈ 0.487 µM) | 0.25 µg/mL (≈ 0.487 µM) | 1 µg/mL (≈ 1.95 µM) | 1 µg/mL (≈ 1.95 µM) | 16 µg/mL (≈ 31.2 µM) | > 128 µg/mL | > 128 µg/mL | > 128 µg/mL | 128 µg/mL (≈ 249 µM) | > 128 µg/mL | > 128 µg/mL | 0.125 µg/mL (≈ 0.243 µM) | 0.25 µg/mL (≈ 0.487 µM) | 128 µg/mL (≈ 249 µM) | 128 µg/mL (≈ 249 µM) | 
COc1cc(Oc2ccc(-c3cc4ccc(C(=N)NC(C)C)cc4[nH]3)cc2)ccc1-c1cc2ccc(C(=N)NC(C)C)cc2[nH]1 | 0.25 µg/mL (≈ 0.418 µM) | 0.25 µg/mL (≈ 0.418 µM) | 0.25 µg/mL (≈ 0.418 µM) | 1 µg/mL (≈ 1.67 µM) | 16 µg/mL (≈ 26.7 µM) | 64 µg/mL (≈ 107 µM) | 64 µg/mL (≈ 107 µM) | 128 µg/mL (≈ 214 µM) | 32 µg/mL (≈ 53.4 µM) | 64 µg/mL (≈ 107 µM) | 64 µg/mL (≈ 107 µM) | 0.125 µg/mL (≈ 0.209 µM) | 0.25 µg/mL (≈ 0.418 µM) | 64 µg/mL (≈ 107 µM) | > 128 µg/mL | 
CN[C@H](CC(C)C)C(=O)N[C@H]1C(=O)N[C@@H](CC(N)=O)C(=O)N[C@H]2C(=O)N[C@H]3C(=O)N[C@H](C(=O)N[C@H](C(=O)O)c4cc(O)cc(O)c4-c4cc3ccc4O)[C@H](O)c3ccc(c(Cl)c3)Oc3cc2cc(c3O[C@@H]2O[C@H](CO)[C@@H](O)[C@H](O)[C@H]2O[C@H]2C[C@](C)(N)[C@H](O)[C@H](C)O2)Oc2ccc(cc2Cl)[C@H]1O [VANCOMYCIN] |  |  | 1 µg/mL (≈ 0.69 µM) |  |  |  |  |  |  |  |  | 0.5 µg/mL (≈ 0.345 µM) |  |  |  | 
